Reference: PubChem BioAssay AID1963981 (Molecular Pharmacology Branch, DTP, NCI, 2024)
Values belong to the compound of their own block, whether it stands above or below them.

System: 354836-022-R-J1-PDC multicell spheroid viability
Test: Anticancer human tumor 354836-022-R-J1-PDC patient-derived head and neck squamous cell carcinoma cell line growth inhibition [PI3K]
Details: for IC50: curve of first compound; for viability, T/C: stronger effect = lower value
In short: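 We assembled tumor spheroids that included a stromal compartment of HUVEC and MSCs, then exposed them to targeted agents alone and together with PI3K pathway inhibitors. Concentration series descended by half-log from clinically achievable Cmax levels. Viability served as the endpoint.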

[1] = second compound 0.0316 µM, first compound 0.000316 µM
[2] = second compound 0.0316 µM, first compound 0.001 µM
[3] = second compound 0.0316 µM, first compound 0.00316 µM
[4] = second compound 0.0316 µM, first compound 0.01 µM
[5] = second compound 0.0316 µM, first compound 0.0316 µM
[6] = second compound 0.0316 µM, first compound 0.1 µM
[7] = second compound 0.1 µM, first compound 0.000316 µM
[8] = second compound 0.1 µM, first compound 0.001 µM
[9] = second compound 0.1 µM, first compound 0.00316 µM
[10] = second compound 0.1 µM, first compound 0.01 µM
[11] = second compound 0.1 µM, first compound 0.0316 µM
[12] = second compound 0.1 µM, first compound 0.1 µM
[13] = second compound 0.316 µM, first compound 0.000316 µM
[14] = second compound 0.316 µM, first compound 0.001 µM
[15] = second compound 0.316 µM, first compound 0.00316 µM
[16] = second compound 0.316 µM, first compound 0.01 µM
[17] = second compound 0.316 µM, first compound 0.0316 µM
[18] = second compound 0.316 µM, first compound 0.1 µM
[19] = second compound 1 µM, first compound 0.000316 µM
[20] = second compound 1 µM, first compound 0.001 µM
[21] = second compound 1 µM, first compound 0.00316 µM
[22] = second compound 1 µM, first compound 0.01 µM
[23] = second compound 1 µM, first compound 0.0316 µM
[24] = second compound 1 µM, first compound 0.1 µM
[25] = second compound 0.00316 µM, first compound 0.00316 µM
[26] = second compound 0.00316 µM, first compound 0.01 µM
[27] = second compound 0.00316 µM, first compound 0.0316 µM
[28] = second compound 0.00316 µM, first compound 0.1 µM
[29] = second compound 0.01 µM, first compound 0.00316 µM
[30] = second compound 0.01 µM, first compound 0.01 µM
[31] = second compound 0.01 µM, first compound 0.0316 µM
[32] = second compound 0.01 µM, first compound 0.1 µM
[33] = second compound 0.00316 µM, first compound 0.316 µM
[34] = second compound 0.00316 µM, first compound 1 µM
[35] = second compound 0.01 µM, first compound 0.316 µM
[36] = second compound 0.01 µM, first compound 1 µM
[37] = second compound 0.0316 µM, first compound 0.316 µM
[38] = second compound 0.0316 µM, first compound 1 µM
[39] = second compound 0.1 µM, first compound 0.316 µM
[40] = second compound 0.1 µM, first compound 1 µM
[41] = second compound 0.316 µM, first compound 0.316 µM
[42] = second compound 0.316 µM, first compound 1 µM
[43] = second compound 1 µM, first compound 0.316 µM
[44] = second compound 1 µM, first compound 1 µM
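Note: spheroids exposed to agents for seven days before the viability read.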

IC50 (second compound 0.0316 µM): > 0.1 µM
IC50 (second compound 0.1 µM): > 0.1 µM
IC50 (second compound 0.316 µM): > 0.1 µM
IC50 (second compound 1 µM): > 0.1 µM
IC50 (second compound 3.16 µM): > 0.1 µM
IC50 (second compound 10 µM): < 0.000316 µM
Compound: CC(=O)c1c(C)c2cnc(Nc3ccc(N4CCNCC4)cn3)nc2n(C2CCCC2)c1=O + Cc1nc(NC(=O)N2CCCC2C(N)=O)sc1-c1ccnc(C(C)(C)C(F)(F)F)c1
viability, T/C [1]: 105%
viability, T/C [2]: 96.8%
viability, T/C [3]: 105%
viability, T/C [4]: 83.7%
viability, T/C [5]: 117%
viability, T/C [6]: 101%
viability, T/C [7]: 103%
viability, T/C [8]: 91.8%
viability, T/C [9]: 92.9%
viability, T/C [10]: 92.8%
viability, T/C [11]: 89.4%
viability, T/C [12]: 111%
viability, T/C [13]: 84.1%
viability, T/C [14]: 83.5%
viability, T/C [15]: 85.8%
viability, T/C [16]: 96.6%
viability, T/C [17]: 86.4%
viability, T/C [18]: 88.9%
viability, T/C [19]: 71%
viability, T/C [20]: 89.5%
viability, T/C [21]: 74.6%
viability, T/C [22]: 73.3%
viability, T/C [23]: 73.5%
viability, T/C [24]: 85.2%
viability, T/C (second compound 3.16 µM, first compound 0.000316 µM): 63%
viability, T/C (second compound 3.16 µM, first compound 0.001 µM): 72.1%
viability, T/C (second compound 3.16 µM, first compound 0.00316 µM): 67.8%
viability, T/C (second compound 3.16 µM, first compound 0.01 µM): 60%
viability, T/C (second compound 3.16 µM, first compound 0.0316 µM): 59.4%
viability, T/C (second compound 3.16 µM, first compound 0.1 µM): 67.5%
viability, T/C (second compound 10 µM, first compound 0.000316 µM): 41%
viability, T/C (second compound 10 µM, first compound 0.001 µM): 37.3%
viability, T/C (second compound 10 µM, first compound 0.00316 µM): 35.7%
viability, T/C (second compound 10 µM, first compound 0.01 µM): 35.4%
viability, T/C (second compound 10 µM, first compound 0.0316 µM): 34.9%
viability, T/C (second compound 10 µM, first compound 0.1 µM): 39.7%

IC50 (second compound 0.00316 µM): > 0.1 µM
IC50 (second compound 0.01 µM): > 0.1 µM
IC50 (second compound 0.0316 µM): > 0.1 µM
IC50 (second compound 0.1 µM): > 0.1 µM
IC50 (second compound 0.316 µM): > 0.1 µM
IC50 (second compound 1 µM): > 0.1 µM
Compound: CC(=O)c1c(C)c2cnc(Nc3ccc(N4CCNCC4)cn3)nc2n(C2CCCC2)c1=O + CC(Nc1ccc2c(c1)OCCn1cc(N3C(=O)OCC3C(F)F)nc1-2)C(N)=O
viability, T/C (second compound 0.00316 µM, first compound 0.000316 µM): 95.6%
viability, T/C (second compound 0.00316 µM, first compound 0.001 µM): 98%
viability, T/C [25]: 109%
viability, T/C [26]: 82.5%
viability, T/C [27]: 102%
viability, T/C [28]: 98.7%
viability, T/C (second compound 0.01 µM, first compound 0.000316 µM): 99%
viability, T/C (second compound 0.01 µM, first compound 0.001 µM): 94.3%
viability, T/C [29]: 102%
viability, T/C [30]: 90%
viability, T/C [31]: 94.8%
viability, T/C [32]: 105%
viability, T/C [1]: 85.2%
viability, T/C [2]: 109%
viability, T/C [3]: 92.2%
viability, T/C [4]: 97.8%
viability, T/C [5]: 98.4%
viability, T/C [6]: 101%
viability, T/C [7]: 80.7%
viability, T/C [8]: 84.2%
viability, T/C [9]: 87%
viability, T/C [10]: 93%
viability, T/C [11]: 96.8%
viability, T/C [12]: 80.3%
viability, T/C [13]: 65.8%
viability, T/C [14]: 78.9%
viability, T/C [15]: 70.8%
viability, T/C [16]: 68%
viability, T/C [17]: 70.7%
viability, T/C [18]: 72.4%
viability, T/C [19]: 65.5%
viability, T/C [20]: 60%
viability, T/C [21]: 54.4%
viability, T/C [22]: 65.7%
viability, T/C [23]: 62.7%
viability, T/C [24]: 63.6%

IC50 (second compound 0.00316 µM): 0.656 µM
IC50 (second compound 0.01 µM): 0.642 µM
IC50 (second compound 0.0316 µM): 0.342 µM
IC50 (second compound 0.1 µM): < 0.00316 µM
IC50 (second compound 0.316 µM): < 0.00316 µM
IC50 (second compound 1 µM): < 0.00316 µM
Compound: CCN1CCN(Cc2ccc(Nc3ncc(F)c(-c4cc(F)c5nc(C)n(C(C)C)c5c4)n3)nc2)CC1 + COc1c(OCCCN2CCOCC2)ccc2c3n(c(=NC(=O)c4cnc(N)nc4)nc12)CCN3
viability, T/C [25]: 97.2%
viability, T/C [26]: 86.5%
viability, T/C [27]: 98.3%
viability, T/C [28]: 99.3%
viability, T/C [33]: 71.5%
viability, T/C [34]: 37.6%
viability, T/C [29]: 98%
viability, T/C [30]: 101%
viability, T/C [31]: 96%
viability, T/C [32]: 81.1%
viability, T/C [35]: 83.5%
viability, T/C [36]: 31.7%
viability, T/C [3]: 78.5%
viability, T/C [4]: 74.4%
viability, T/C [5]: 72.6%
viability, T/C [6]: 65.2%
viability, T/C [37]: 53.5%
viability, T/C [38]: 20.9%
viability, T/C [9]: 46.6%
viability, T/C [10]: 41.8%
viability, T/C [11]: 46.5%
viability, T/C [12]: 36.6%
viability, T/C [39]: 30.4%
viability, T/C [40]: 6.41%
viability, T/C [15]: 11.8%
viability, T/C [16]: 10.4%
viability, T/C [17]: 12.9%
viability, T/C [18]: 8.98%
viability, T/C [41]: 5.99%
viability, T/C [42]: 2.69%
viability, T/C [21]: 1.43%
viability, T/C [22]: 1.38%
viability, T/C [23]: 1.41%
viability, T/C [24]: 1.78%
viability, T/C [43]: 1.38%
viability, T/C [44]: 1.22%

IC50 (second compound 0.00316 µM): > 10 µM
IC50 (second compound 0.01 µM): > 10 µM
IC50 (second compound 0.0316 µM): > 10 µM
IC50 (second compound 0.1 µM): > 10 µM
IC50 (second compound 0.316 µM): > 10 µM
IC50 (second compound 1 µM): > 10 µM
Compound: C[C@@H](NC(=O)c1ncnc(N)c1Cl)c1ncc(C(=O)Nc2cc(C(F)(F)F)c(Cl)cn2)s1 + CC(Nc1ccc2c(c1)OCCn1cc(N3C(=O)OCC3C(F)F)nc1-2)C(N)=O
viability, T/C [27]: 98.4%
viability, T/C [28]: 92.4%
viability, T/C [33]: 103%
viability, T/C [34]: 109%
viability, T/C (second compound 0.00316 µM, first compound 3.16 µM): 107%
viability, T/C (second compound 0.00316 µM, first compound 10 µM): 67.5%
viability, T/C [31]: 108%
viability, T/C [32]: 90.9%
viability, T/C [35]: 91.4%
viability, T/C [36]: 104%
viability, T/C (second compound 0.01 µM, first compound 3.16 µM): 110%
viability, T/C (second compound 0.01 µM, first compound 10 µM): 64.1%
viability, T/C [5]: 92.1%
viability, T/C [6]: 93.1%
viability, T/C [37]: 102%
viability, T/C [38]: 111%
viability, T/C (second compound 0.0316 µM, first compound 3.16 µM): 103%
viability, T/C (second compound 0.0316 µM, first compound 10 µM): 71.9%
viability, T/C [11]: 82.2%
viability, T/C [12]: 93.8%
viability, T/C [39]: 94.9%
viability, T/C [40]: 92.3%
viability, T/C (second compound 0.1 µM, first compound 3.16 µM): 88.5%
viability, T/C (second compound 0.1 µM, first compound 10 µM): 71.6%
viability, T/C [17]: 74.4%
viability, T/C [18]: 75.9%
viability, T/C [41]: 82.9%
viability, T/C [42]: 84.6%
viability, T/C (second compound 0.316 µM, first compound 3.16 µM): 88.1%
viability, T/C (second compound 0.316 µM, first compound 10 µM): 58.1%
viability, T/C [23]: 63%
viability, T/C [24]: 62.2%
viability, T/C [43]: 62.9%
viability, T/C [44]: 65.2%
viability, T/C (second compound 1 µM, first compound 3.16 µM): 74.5%
viability, T/C (second compound 1 µM, first compound 10 µM): 53.6%
